Read-outs that look alike come from different tables or passages of the source.
Experiments:
[1] = system: MCF-7 cells; assay: MTT assay, cytotoxicity on MCF-7 cells
[2] = Estimation of the water solubility (DMSO stock diluted with deionized water until sediment); assay type: physicochemical; parameters: key: “5×”: weak; “10×”: middle; “20×”:good’; “50×”: very good; “100×”: excellent; conditions: 1 mg in 100 μL DMSO, class by dilution factor
Experimental: The water solubility of betulinic acid and its derivatives was evaluated following the described method. For this purpose, 1 mg of the substance was dissolved in 100 μL of DMSO. The stock solution was diluted with 10 μL potions of deionized water until the sediment was observed. 10 μL portions were added to produce dilutions corresponding to 5 times, 10 times, 20 times, 50 times, and 100 times the original concentration.

[3] = Thermal stability by thermogravimetric analysis (TG); assay type: physicochemical
Experimental: The test was conducted in the 25–1000 °C temperature range at a heating rate of 10 ° min^−1 under air (flow rate of 25 cm^−3min^−1) and nitrogen (flow rate of 10 cm^−3min^−1). The weight of the samples was 5–7 mg.

[4] = system: MCF-7 cells
[5] = system: MCF-7 cells; assay: Cell morphology analysis by light microscopy; assay type: cell-based, human; conditions: MCF-7, 72 h, concentration close to IC50
Experimental: The changes in cell morphology after a 72 h treatment with BA and [AAOEt][BA] were observed under an inverted microscope (MEIJI, Japan) with objective 10 (Phase DM, MEIJI, Japan) and camera Optikam B1 Digital (Optika, Ponteranica, Bergamo, Italy).

[6] = system: MCF-7 cells; assay: Colony formation (clonogenic) assay; assay type: cell-based, human; conditions: for effect on MCF-7 colony formation: 2.5–12.5 µM
Experimental: Clonogenic assays were performed, and surviving fractions were calculated as described by Franken et al.. Briefly, MCF-7 cells were seeded in 6-well plates at a concentration of 500 cells/well and allowed to adhere for 48 h and subsequently treated with 2.5–12.5 µM concentration of BA and selected BA-ILs (Day 1). The BA and BA-ILs were replenished every 4 days. On Day 10, cells were fixed with 10% formalin in phosphate-buffered saline (PBS), pH 7.4 for 30 min at room temperature (RT), washed with PBS and stained with 0.1% Crystal violet solution in ddH2O, 30 min, RT, followed by a final thorough wash in ddH2O. The colonies were then imaged and analyzed with the open-source platform Fiji.

[7] = parameters: method as in PMID 28273859; conditions: cited from earlier work
[8] = parameters: method as in PMID 28273859; conditions: model of intestinal mucus, compared to known drugs; cited from earlier work
[9] = system: MCF-10A cells; assay: MTT assay, cytotoxicity on MCF-10A cells; assay type: cell-based, human; conditions: 72 h
Experimental: The assay was conducted as described by Mosmann. […] Non-treated cancer cells were used as a control.

Compound | IC50 ([1]; MCF-7, 72 h, MTT) [µM] | Water Solubility [2] | TDTGmax (maximum decomposition temperature) ([3]; TG, 25–1000 °C, 10 °/min) [°C] | TTGonset (onset of the thermal degradation) [3] [°C] | other results
C=C(C)C1CCC2(C(=O)O)CCC3(C)C(CCC4C5(C)CCC(O)C(C)(C)C5CCC43C)C12.CCOC(=O)C(N)CCSC (centres unmarked) [[MetOEt][BA]] | 7.5 ± 0.3 | weak | 358.6 |  | cytotoxicity / IC50 compared with BA ([1]; MCF-7, 72 h, MTT): IC50 values lower than that of BA; TTGonset (onset of the thermal degradation) ([3]; TG, 25–1000 °C, 10 °/min): 125.7 °C
C=C(C)C1CCC2(C(=O)O)CCC3(C)C(CCC4C5(C)CCC(O)C(C)(C)C5CCC43C)C12.CCOC(=O)C(N)Cc1ccc(O)cc1 (centres unmarked) [[TyrOEt][BA]] | 14.2 ± 2.4 | weak | 354.4 | 202.3 | cytotoxicity / IC50 compared with BA [4]: cytotoxicity similar to BA
C=C(C)C1CCC2(C(=O)O)CCC3(C)C(CCC4C5(C)CCC(O)C(C)(C)C5CCC43C)C12.CCOC(=O)CC(N)C(=O)OCC (centres unmarked) [[Asp(OEt)2][BA]] | 8.9 ± 2.1 | middle | 357.4 | 119.8 | 
C=C(C)C1CCC2(C(=O)O)CCC3(C)C(CCC4C5(C)CCC(O)C(C)(C)C5CCC43C)C12.CCOC(=O)C(N)Cc1ccccc1 (centres unmarked) [[PheOEt][BA]] | 12.3 ± 1.7 | middle | 360.1 | 133.9 | cytotoxicity / IC50 compared with BA [4]: cytotoxicity similar to BA
C=C(C)C1CCC2(C(=O)O)CCC3(C)C(CCC4C5(C)CCC(O)C(C)(C)C5CCC43C)C12.CCOC(=O)C(C)N (centres unmarked) [[AlaOEt][BA]] | 12.7 ± 4.5 | weak | 370.7 | 92.0 | 
C=C(C)C1CCC2(C(=O)O)CCC3(C)C(CCC4C5(C)CCC(O)C(C)(C)C5CCC43C)C12.CCOC(=O)C(N)CO (centres unmarked) [[SerOEt][BA]] | 12.2 ± 2.6 | middle | 364.1 | 118.2 | 
C=C(C)C1CCC2(C(=O)O)CCC3(C)C(CCC4C5(C)CCC(O)C(C)(C)C5CCC43C)C12.CCOC(=O)C(N)CS (centres unmarked) [[CysOEt][BA]] | 9.6 ± 3.8 | middle | 359.2 | 150.1 | 
C=C(C)[C@@H]1CC[C@]2(C(=O)O)CC[C@]3(C)[C@H](CC[C@@H]4[C@@]5(C)CC[C@H](O)C(C)(C)[C@@H]5CC[C@]43C)[C@@H]12 [BA, Betulinic acid] |  | weak | 358.7 |  | IC50 ([1]; Homo sapiens, MCF7, 72 h): 11.5 ± 1.8 µM; changes in cell numbers and morphology [5]: reduction in cell numbers; effect on MCF-7 colony formation [6]: did not inhibit MCF-7 colony formation; bioavailability [7]: 2.3%; permeability classification [8]: moderate to poorly permeable; TTGonset (onset of the thermal degradation) ([3]; TG, 25–1000 °C, 10 °/min): 305.7 °C
C=C(C)C1CCC2(C(=O)O)CCC3(C)C(CCC4C5(C)CCC(O)C(C)(C)C5CCC43C)C12.CCOC(=O)C(N)C(C)C (centres unmarked) [[ValOEt][BA]] | 25.7 ± 0.8 | weak | 354.0 | 116.8 | effect on MCF-7 colony formation [6]: did not inhibit MCF-7 colony formation
C=C(C)C1CCC2(C(=O)O)CCC3(C)C(CCC4C5(C)CCC(O)C(C)(C)C5CCC43C)C12.CCOC(=O)C1CCCN1 (centres unmarked) [[ProOEt][BA]] | 7.6 ± 1.8 | weak | 372.1 | 121.6 | 
C=C(C)C1CCC2(C(=O)O)CCC3(C)C(CCC4C5(C)CCC(O)C(C)(C)C5CCC43C)C12.CCOC(=O)C(N)C(C)CC (centres unmarked) [[IleOEt][BA]] | 8.5 ± 1.3 | weak | 369.0 | 127.5 | cytotoxicity / IC50 compared with BA [4]: IC50 values lower than that of BA
C=C(C)C1CCC2(C(=O)O)CCC3(C)C(CCC4C5(C)CCC(O)C(C)(C)C5CCC43C)C12.CCOC(=O)C(N)CCCCN (centres unmarked) [[LysOEt][BA]] | 12.9 ± 0.3 | very good | 327.3 | 144.0 | 
C=C(C)C1CCC2(C(=O)O)CCC3(C)C(CCC4C5(C)CCC(O)C(C)(C)C5CCC43C)C12.C=C(C)C1CCC2(C(=O)O)CCC3(C)C(CCC4C5(C)CCC(O)C(C)(C)C5CCC43C)C12.CCOC(=O)C(N)CCCCN (centres unmarked) [[LysOEt][BA]2] | 4.8 ± 1.3 | good | 368.8 | 157.7 | cell specificity of action (MCF-10A vs MCF-7) [9]: did not show any cell specificity; IC50 ([9]; MCF-10A): 4 µM; changes in cell numbers and morphology [5]: cell rounding and shrinkage; surviving fraction (cell clonogenicity) ([6]; MCF-7, 12.5 µM, vs non-treated control, Day 10): below 20%; clonogenic efficiency ([6]; MCF-7, compared to that of BA (abstract)): 20%
C=C(C)C1CCC2(C(=O)O)CCC3(C)C(CCC4C5(C)CCC(O)C(C)(C)C5CCC43C)C12.CCOC(=O)C(N)CC(C)C (centres unmarked) [[LeuOEt][BA]] | 7.5 ± 1.2 |  | 359.4 | 114.9 | 
C=C(C)C1CCC2(C(=O)O)CCC3(C)C(CCC4C5(C)CCC(O)C(C)(C)C5CCC43C)C12.CCOC(=O)C(N)C(C)O (centres unmarked) [[ThrOEt][BA]] | 8.2 ± 2.4 | middle | 353.5 | 109.0 | 
C=C(C)C1CCC2(C(=O)O)CCC3(C)C(CCC4C5(C)CCC(O)C(C)(C)C5CCC43C)C12.CCOC(=O)C(N)Cc1c[nH]c2ccccc12 (centres unmarked) [[TrpOEt][BA]] | 13.1 ± 0.4 | middle | 359.8 |  | cytotoxicity / IC50 compared with BA [4]: cytotoxicity similar to BA

Source: paper PMC11053683, “Tuning of the Anti-Breast Cancer Activity of Betulinic Acid via Its Conversion to Ionic Liquids” (Pharmaceutics, 2024)
